Measured values from patent US20240277713A1 (Kadmon Corporation, LLC, priority 2022, published 2024).
Marks after values point to notes of the source that are not given here.

Tested on: Sprague-Dawley rats
Assay: Embryo-fetal developmental toxicity study in Sprague-Dawley rats (Example 3)
Method: For this study, a total of 140 time-mated female rats (approximately 8 to 10 weeks of age) were obtained from Charles River Laboratories, Raleigh, North Carolina, and acclimated from the time of arrival until the time of dosing on GD 6. During the acclimation period, the animals were observed twice daily with respect to general health and any signs of disease. All animals were given a detailed clinical examination and body weights were recorded prior to selection. […] Food consumption was collected during the acclimation period.
Animals received in-life and postmorten evaluations. […] All fetuses were given an external and visceral or skeletal examination.
Detailed clinical observations were made daily from GD 6 through 20 (4 hours±1 hour postdose on dosing days).
Food consumption for main study animals was measured and recorded on the corresponding body weight days and calculated for the same intervals.
The placentae were examined grossly.
The foci, if detected, were considered early resorptions, and data from this female were included in mean calculations

With `CC(C)NC(=O)COc1cccc(-c2nc(Nc3ccc4[nH]ncc4c3)c3ccccc3n2)c1` [belumosudil, 2-{3-[4-(1H-indazol-5-ylamino)-2-quinazolinyl]phenoxy}-N-(propan-2-yl) acetamide] the “Maternal Body Weight Change GD 6-9” value (15 mg base/kg/day) was 10.0 g, the “Maternal Body Weight Change GD 6-18” value (15 mg base/kg/day) was 93.8 g and the “Maternal Body Weight Change GD 6-20” value (15 mg base/kg/day) was 127.9 g. For the same compound, the “Maternal Body Weight Change GD 18-20” value (15 mg base/kg/day) was 34.0 g, the “Maternal Body Weight GD 9” value (15 mg base/kg/day) was 231.7 g and the “Maternal Body Weight GD 12” value (15 mg base/kg/day) was 257.0 g. For the same compound, the “Maternal Body Weight GD 15” value (15 mg base/kg/day) was 272.8 g, the “Maternal Body Weight GD 18” value (15 mg base/kg/day) was 315.5 g and the “Maternal Body Weight GD 20” value (15 mg base/kg/day) was 349.6 g. For the same compound, the “Maternal Food Consumption GD 6-9” value (15 mg base/kg/day) was 19.0, the “Maternal Food Consumption GD 6-18” value (15 mg base/kg/day) was 22.6 and the “Maternal Food Consumption GD 6-20” value (15 mg base/kg/day) was 23.2. For the same compound, the “Maternal Food Consumption GD 18-20” value (15 mg base/kg/day) was 27.3, the “Mean Fetal Body Weight Females” value (15 mg base/kg/day) was 4.00 g and the “Mean Fetal Body Weight Genders Combined” value (15 mg base/kg/day) was 4.10 g. For the same compound, the “Mean Fetal Body Weight Males” value (15 mg base/kg/day) was 4.19 g, the “Adjusted Final Body Weight, Mean” value (15 mg base/kg/day (N = 25)) was 278.5 g and the “Adjusted Weight Change From Day 6, Mean” value (15 mg base/kg/day (N = 25)) was 56.8. For the same compound, the “Final Body Weight, Mean” value (15 mg base/kg/day (N = 25)) was 349.6 g, the “Gravid Uterine Weight, Mean” value (15 mg base/kg/day (N = 25)) was 71.0 g and the “Discharge, Brown, Vulva, times observed/animals” value (15 mg base/kg/day, GD 6-20) was 1/1. The “Discharge, Red, Vulva, times observed/animals” value (15 mg base/kg/day, GD 6-20) was 0/0, the “Ear/portion of ear missing, Ear/left, times observed/animals” value (15 mg base/kg/day, GD 6-20) was 13/1 and the “Hair sparse, Abdominal region, times observed/animals” value (15 mg base/kg/day, GD 6-20) was 7/1. For the same compound, the “Hair sparse, Cervical region, times observed/animals” value (15 mg base/kg/day, GD 6-20) was 0/0, the “Hair sparse, Forefoot/left, times observed/animals” value (15 mg base/kg/day, GD 6-20) was 4/2 and the “Hair sparse, Forefoot/right, times observed/animals” value (15 mg base/kg/day, GD 6-20) was 0/0. For the same compound, the “Hair sparse, Forelimb/left, times observed/animals” value (15 mg base/kg/day, GD 6-20) was 12/3, the “Hair sparse, Forelimb/right, times observed/animals” value (15 mg base/kg/day, GD 6-20) was 17/3 and the “Hair sparse, Hind limb/left, times observed/animals” value (15 mg base/kg/day, GD 6-20) was 0/0. The “Hair sparse, Hind limb/right, times observed/animals” value (15 mg base/kg/day, GD 6-20) was 0/0, the “Hair sparse, Lumbar region, times observed/animals” value (15 mg base/kg/day, GD 6-20) was 0/0 and the “Hair sparse, Thoracic region, times observed/animals” value (15 mg base/kg/day, GD 6-20) was 0/0. The “Scabbed area, Face, times observed/animals” value (15 mg base/kg/day, GD 6-20) was 7/1, the “Scabbed area, Forelimb/right, times observed/animals” value (15 mg base/kg/day, GD 6-20) was 4/1 and the “Scabbed area, Tail, times observed/animals” value (15 mg base/kg/day, GD 6-20) was 0/0. The “Scabbed area, Thoracic region, times observed/animals” value (15 mg base/kg/day, GD 6-20) was 1/1, the “Tail missing - portion, times observed/animals” value (15 mg base/kg/day, GD 6-20) was 0/0 and the “Maternal Body Weight Change GD 6-9” value (50 mg base/kg/day) was 6.2^b g. For the same compound, the “Maternal Body Weight Change GD 6-18” value (50 mg base/kg/day) was 78.8^b g, the “Maternal Body Weight Change GD 6-20” value (50 mg base/kg/day) was 115.9^b g and the “Maternal Body Weight Change GD 18-20” value (50 mg base/kg/day) was 37.1 g. For the same compound, the “Maternal Body Weight GD 9” value (50 mg base/kg/day) was 225.5^a g, the “Maternal Body Weight GD 12” value (50 mg base/kg/day) was 246.3^b g and the “Maternal Body Weight GD 15” value (50 mg base/kg/day) was 262.6^b g. For the same compound, the “Maternal Body Weight GD 18” value (50 mg base/kg/day) was 298.1^b g, the “Maternal Body Weight GD 20” value (50 mg base/kg/day) was 335.2^b g and the “Maternal Food Consumption GD 6-9” value (50 mg base/kg/day) was 15.5^b. For the same compound, the “Maternal Food Consumption GD 6-18” value (50 mg base/kg/day) was 20.0^b, the “Maternal Food Consumption GD 6-20” value (50 mg base/kg/day) was 21.3^b and the “Maternal Food Consumption GD 18-20” value (50 mg base/kg/day) was 29.0. For the same compound, the “Mean Fetal Body Weight Females” value (50 mg base/kg/day) was 3.94 g, the “Mean Fetal Body Weight Genders Combined” value (50 mg base/kg/day) was 4.06 g and the “Mean Fetal Body Weight Males” value (50 mg base/kg/day) was 4.19 g. For the same compound, the “Adjusted Final Body Weight, Mean” value (50 mg base/kg/day (N = 25)) was 266.4^b g, the “Adjusted Weight Change From Day 6, Mean” value (50 mg base/kg/day (N = 25)) was 47.1^b and the “Final Body Weight, Mean” value (50 mg base/kg/day (N = 25)) was 335.2^b g. For the same compound, the “Gravid Uterine Weight, Mean” value (50 mg base/kg/day (N = 25)) was 68.8 g, the “Discharge, Brown, Vulva, times observed/animals” value (50 mg base/kg/day, GD 6-20) was 1/1 and the “Discharge, Red, Vulva, times observed/animals” value (50 mg base/kg/day, GD 6-20) was 4/4. For the same compound, the “Ear/portion of ear missing, Ear/left, times observed/animals” value (50 mg base/kg/day, GD 6-20) was 0/0, the “Hair sparse, Abdominal region, times observed/animals” value (50 mg base/kg/day, GD 6-20) was 0/0 and the “Hair sparse, Cervical region, times observed/animals” value (50 mg base/kg/day, GD 6-20) was 8/1. For the same compound, the “Hair sparse, Forefoot/left, times observed/animals” value (50 mg base/kg/day, GD 6-20) was 0/0 and the “Hair sparse, Forefoot/right, times observed/animals” value (50 mg base/kg/day, GD 6-20) was 0/0.
